# From patent US7588788B2, “Immune modulation and anti-allergy activities of Zingiber zerumbet” (Wholesome Life Science Co., Ltd., priority 2004, dated 2009)
# Tests used:
# [1] = tested on: Th1/Th2 immune responses; experiment: Active compound identification by in vitro bioactive screening of purification fractions; assay type: cell-based; details: compound identified from active fractions
# [2] = tested on: Rat Basophilic Leukemia-1 (RBL-1) cell, LTC4 secretion; experiment: LTC4 released by A23187 stimulated leukemia cells (ELISA); assay type: cell-based; details: compound identified from the most active fraction
# Description: Cell culture and drug treatment: Rat Basophilic Leukemia-1 (RBL-1) was purchased from Food Industry Research and Development Institute (CCRC 60198, ATCC CRL-1378), and cultured in MEM-alpha medium (Gibco, 12000). All trans-retinoic acid (1 μg/ml) was added to a 3.5 cm diameter well (6-well plate) at 2×10^6 cells/2 ml/well. Plates were then incubated at 37° C. with 5% CO2 in air for 16 hr. Various volumes of ZZ samples were added to the wells to make the appropriate final concentrations (0, 0.5, 5, 50 μg/ml) and incubated for 2 more hours. A23187 (calcium ionophore) was added to each well to reach the final concentration of 10 μM to stimulate RBL-1 cells to release LTC4/cLTs for 15 min. The mediums in the wells were centrifuged at 5000 rpm for 10 min to obtain the supernatant for ELISA assay.
# LTC4/cLTs ELISA assay: The supernatants of the cell cultures were diluted into appropriate concentrations before the EIA analysis for LTC4/cLTs. Analysis was performed according to the procedures provided by the manufacturer.
Compound,increase of the IFN-γ/IL-4 gene expression ratio [1],effect of suppressing LTC4 [2]
"C/C1=C\CC(C)(C)/C=C/C(=O)/C(C)=C/CC1 [Zerumbone, zerumbone]",active ingredient,–
"COc1c(-c2ccc(O)cc2)oc2cc(O)cc(O)c2c1=O [5,7-dihydroxy-2-(4-hydroxy-phenyl)-3-methoxy-chromen-4-one]",–,active compound
